Assay results reported in patent US9302999B2, “Substituted triazoles as herbicides” (E. I. DU PONT DE NEMOURS AND COMPANY, priority 2012, dated 2016).

Assays:
[1] = system: velvetleaf (Abutilon theophrasti); assay: Test E pre-/postemergence: velvetleaf; type: in vivo; conditions: Preemergence, scale 0 to 100
Excerpt: (§1) Seeds of plant species selected from corn (Zea mays), soybean (Glycine max), velvetleaf (Abutilon theophrasti), lambsquarters (Chenopodium album), poinsettia, wild (wild poinsettia, Euphorbia heterophylla), pigweed, palmer (palmer pigweed, Amaranthus palmeri), waterhemp (common waterhemp, Amaranthus rudis), smartweed (ladysthumb smartweed, Polygonum persicaria), surinam grass (Brachiaria decumbens), crabgrass, large (large crabgrass, Digitaria sanguinalis), crabgrass, Brazil (Brazilian crabgrass, Digitaria horizontalis), panicum, fall (fall panicum, Panicum dichotomiflorum), foxtail, giant (giant foxtail, Setaria faberii), foxtail, green (green foxtail, Setaria viridis), goosegrass (Eleusine indica), johnsongrass (Sorghum halepense), ragweed (common ragweed, Ambrosia elation), barnyardgrass (Echinochloa crus-galli), sandbur (southern sandbur, Cenchrus echinatus), arrowleaf sida (Sida rhombifolia), ryegrass, Italian (Italian ryegrass, Lolium multiflorum), dayflower, (VA) (Virginia dayflower, Commelina virginica), field bindweed (Convolvulus arvensis), cocklebur (common cocklebur, Xanthium strumarium), morningglory (Ipomoea coccinea), nightshade (eastern black nightshade, Solanum ptycanthum), kochia (Kochia scoparia), nutsedge, yellow (yellow nutsedge, Cyperus esculentus) and beggarticks (hairy beggarticks, Bidens pilosa) were planted into a silt loam soil and treated preemergence with test chemicals formulated in a non-phytotoxic solvent mixture which included a surfactant. At the same time, plants selected from these crop and weed species were planted in pots containing a growing medium comprising spaghnum peat moss, vermiculite, wetting agent and starter nutrients and treated with postemergence applications of some of the test chemicals formulated in the same manner. Plants ranged in height from 2 to 18 cm for postemergence treatments (1- to 4-leaf stage).
(§2) Treated plants and controls were maintained in a greenhouse for 14 to 21 days, after which time all species were compared to controls and visually evaluated. Plant response ratings, summarized in Table E, are based on a scale of 0 to 100 where 0 is no effect and 100 is complete control. A dash (-) response means no test result.

[2] = system: crabgrass, large (large crabgrass, Digitaria sanguinalis); assay: Test E pre-/postemergence: crabgrass, large; type: in vivo; conditions: Preemergence, scale 0 to 100
Excerpt: as §1, §2

[3] = system: morningglory (Ipomoea coccinea); assay: Test F pre-/postemergence: morningglory; type: in vivo; conditions: Preemergence
Excerpt: (§3) Seeds of plant species selected from corn (Zea mays), soybean (Glycine max), velvetleaf (Abutilon theophrasti), lambsquarters (Chenopodium album), poinsettia, wild (wild poinsettia, Euphorbia heterophylla), pigweed, palmer (palmer pigweed, Amaranthus palmeri), waterhemp (common waterhemp, Amaranthus rudis), surinam grass (Brachiaria decumbens), crabgrass, Brazil (Brazilian crabgrass, Digitaria horizontalis), panicum, fall (fall panicum Panicum dichotomiflorum), crabgrass, large (large crabgrass, Digitaria sanguinalis), foxtail, giant (giant foxtail, Setaria faberii), foxtail, green (green foxtail Setaria viridis), goosegrass (Eleusine indica), ragweed (common ragweed, Ambrosia elatior), barnyardgrass (Echinochloa crus-galli), sandbur (southern sandbur, Cenchrus echinatus), arrowleaf sida (Sida rhombifolia), ryegrass, Italian (Italian ryegrass, Lolium multiflorum), dayflower, VA (Virginia (VA) dayflower, Commelina virginica), field bindweed (Convolvulus arvensis), cocklebur (common cocklebur, Xanthium strumarium), morningglory (Ipomoea coccinea), nightshade (eastern black nightshade, Solanum ptycanthum), kochia (Kochia scoparia), nutsedge, yellow (yellow nutsedge, Cyperus esculentus), johnsongrass (Sorghum halepense), smartweed (ladysthumb smartweed, Polygonum persicaria), and beggarticks (hairy beggarticks, Bidens pilosa), were planted into a silt loam soil and treated preemergence with test chemicals formulated in a non-phytotoxic solvent mixture which included a surfactant. At the same time, plants selected from these crop and weed species and also pigweed (Amaranthus retroflexus), waterhemp_RES1 (ALS/Triazine resistant common waterhemp, Amaranthus rudis) and waterhemp_RES2 (ALS/HPPD resistant common waterhemp, Amaranthus rudis) were planted in pots containing a planting medium comprising spaghnum peat moss, vermiculite, wetting agent and starter nutrients treated with postemergence applications of some of the test chemicals formulated in the same manner. Plants ranged in height from 2 to 18 cm for postemergence treatments (1- to 4-leaf stage).
as §2

[4] = system: crabgrass, large (large crabgrass, Digitaria sanguinalis); assay: Test F pre-/postemergence: crabgrass, large; type: in vivo; conditions: Preemergence
Excerpt: as §3, §2

Waterhemp = assay: Test C preemergence: waterhemp; type: in vivo; conditions: 62 g ai/ha, scale of 0 to 100, 0 is no effect, 100 is complete control
Excerpt: (§4) Seeds of plant species selected from blackgrass (Alopecurus myosuroides), bromegrass, downy (downy bromegrass, Bromus tectorum), foxtail, green (green foxtail, Setaria viridis), ryegrass, Italian (Italian ryegrass, Lolium multiflorum), winter wheat (Triticum aestivum), wild oat (Avena fatua), galium (catchweed bedstraw, Galium aparine), bermudagrass (Cynodon dactylon), surinam grass (Brachiaria decumbens), cocklebur (common cocklebur, Xanthium strumarium), corn (Zea mays), large crabgrass (Digitaria sanguinalis), woolly cupgrass (Eriochloa villosa), foxtail, giant (giant foxtail, Setaria faberii), goosegrass (Eleusine indica), johnsongrass (Sorghum halepense), kochia (Kochia scoparia), lambsquarters (Chenopodium album), morningglory (Ipomoea coccinea), nightshade (eastern black nightshade, Solanum ptycanthum), nutsedge, yellow (yellow nutsedge, Cyperus esculentus), pigweed (Amaranthus retroflexus), ragweed (common ragweed, Ambrosia elation), soybean (Glycine max), common (oilseed) sunflower (Helianthus annuus), Russian thistle (Salsola kali) and velvetleaf (Abutilon theophrasti) were planted into a blend of loam soil and sand and treated preemergence with test chemicals formulated in a non-phytotoxic solvent mixture which included a surfactant.
as §2, with “13” for “14”, “15” for “21”, “C,” for “E,”

[5] = system: barnyardgrass (Echinochloa crus-galli); assay: Test C pre-/postemergence: barnyardgrass; type: in vivo; conditions: Preemergence, 250 g ai/ha; scale 0 to 100, 0 no effect, 100 complete control
Excerpt: as §4
(§5) At the same time, plants selected from these crop and weed species and also barley (winter barley, Hordeum vulgare), canarygrass (Phalaris minor), chickweed (common chickweed, Stellaria media) windgrass (Apera spica-venti) and deadnettle (henbit deadnettle, Lamium amplexicaule) were planted in pots containing Redi-Earth® planting medium (Scotts Company, 14111 Scottslawn Road, Marysville, Ohio 43041) comprising spaghnum peat moss, vermiculite, wetting agent and starter nutrients and treated with postemergence applications of test chemicals formulated in the same manner. Plants ranged in height from 2 to 18 cm (1- to 4-leaf stage) for postemergence treatments.
as §2, with “13” for “14”, “15” for “21”, “C,” for “E,”

Barnyardgrass = assay: Test C postemergence: barnyardgrass; type: in vivo, Echinochloa crus-galli; conditions: 125 g ai/ha, scale 0 to 100, 0 no effect, 100 complete control
Excerpt: as §4, §5
as §2, with “13” for “14”, “15” for “21”, “C,” for “E,”

[6] = 16 g ai/ha, scale 0 to 100 (0 no effect, 100 complete control)
[7] = 31 g ai/ha, scale 0 to 100 (0 no effect, 100 complete control)
[8] = 8 g ai/ha, scale 0 to 100, 0 no effect, 100 complete control

| Structure (SMILES) | Plant response rating: Velvetleaf ([1]; 16 g ai/ha) | Plant response rating: Velvetleaf ([1]; 31 g ai/ha) | Plant response rating: Velvetleaf ([1]; 62 g ai/ha) | Plant response rating: Velvetleaf ([1]; 125 g ai/ha) | Plant response rating: Crabgrass, Large ([2]; 16 g ai/ha) | Plant response rating: Crabgrass, Large ([2]; 31 g ai/ha) | Plant response rating: Crabgrass, Large ([2]; 62 g ai/ha) | Plant response rating: Crabgrass, Large ([2]; 125 g ai/ha) | Plant response rating, Morningglory [3, 6] | Plant response rating, Morningglory [3, 7] | Plant response rating, Crabgrass, Large [4, 7] | Plant response rating, Crabgrass, Large ([4]; 62 g ai/ha, scale 0 to 100) | Plant response rating, Waterhemp (Waterhemp) | Plant response rating, Barnyardgrass [5] | Plant response rating, Barnyardgrass (Barnyardgrass) | also measured |
| --- | --- | --- | --- | --- | --- | --- | --- | --- | --- | --- | --- | --- | --- | --- | --- | --- |
| Cc1nn(-c2ccc(F)cc2)nc1Cc1ccnc(C(F)(F)F)c1 [Compound 16, 4-[[2-(4-fluorophenyl)-5-methyl-2H-1,2,3-triazol-4-yl]methyl]-2-(trifluoromethyl)pyridine] | 20 | 30 | 80 | 80 | 5 | 5 | 90 | 90 | – | – | – | – | – | – | – | Plant response rating: Velvetleaf ([1]; 8 g ai/ha): 0; Plant response rating: Crabgrass, Large ([2]; 8 g ai/ha): 0 |
| Cc1nn(-c2ccc(C(F)(F)F)cc2)nc1Cc1ccnc(C(F)(F)F)c1 [Compound 47, 4-[[5-methyl-2-[4-(trifluoromethyl)phenyl]-2H-1,2,3-triazol-4-yl]methyl]-2-(trifluoromethyl)pyridine] | 30 | 40 | 40 | 75 | 20 | 75 | 100 | 100 | – | – | – | – | – | – | – | Plant response rating: Velvetleaf ([1]; 250 g ai/ha): 100; Plant response rating: Crabgrass, Large ([2]; 250 g ai/ha): 100 |
| Cc1nn(-c2ccc(F)cc2)nc1Oc1ccnc(C(F)(F)F)c1 [Compound 129, 4-[[2-(4-fluorophenyl)-5-methyl-2H-1,2,3-triazol-4-yl]oxy]-2-(trifluoromethyl)pyridine] | 0 | 0 | 20 | 25 | 10 | 80 | 100 | 100 | – | – | – | – | – | – | – | Plant response rating: Velvetleaf ([1]; 8 g ai/ha): 0; Plant response rating: Crabgrass, Large ([2]; 8 g ai/ha): 0 |
| Fc1ccc(-n2nc(Cc3ccnc(C(F)(F)F)c3)c(OCC(F)(F)F)n2)cc1 [Compound 142] | – | – | – | – | – | – | – | – | 0 | 0 | 20 | 98 | – | – | – | Plant response rating, Morningglory ([3]; 125 g ai/ha, scale 0 to 100): 35; Plant response rating, Crabgrass, Large ([4]; 125 g ai/ha, scale 0 to 100): 100 |
| CCCc1nn(-c2ccc(F)cc2)nc1Cc1ccnc(C(F)(F)F)c1 [Compound 153] | – | – | – | – | – | – | – | – | 0 | 30 | 95 | 100 | 100 | 100 | 45 | Plant response rating, Morningglory ([3]; 125 g ai/ha, scale 0 to 100): 65; Plant response rating, Morningglory ([3]; 250 g ai/ha, scale 0 to 100): 65; Plant response rating, Crabgrass, Large [4, 6]: 80; Plant response rating, Crabgrass, Large ([4]; 125 g ai/ha, scale 0 to 100): 100; Plant response rating, Crabgrass, Large ([4]; 250 g ai/ha, scale 0 to 100): 100 |
| Cc1nn(-c2ccc(C(F)(F)F)c(F)c2)nc1Cc1ccnc(C(F)(F)F)c1 [Compound 162] | – | – | – | – | – | – | – | – | 20 | 30 | 95 | 100 | 100 | 100 | 90 | Plant response rating, Morningglory ([3]; 4 g ai/ha, scale 0 to 100, 0 no effect, 100 complete control): 0; Plant response rating, Morningglory [3, 8]: 0; Plant response rating, Crabgrass, Large [4, 8]: 0; Plant response rating, Crabgrass, Large [4, 6]: 0 |
| CCc1nn(-c2ccc(F)cc2)nc1Oc1ccnc(C(F)(F)F)c1 [Compound 166] | – | – | – | – | – | – | – | – | – | – | – | – | 100 | 100 | 45 | – |
| CCCc1nn(-c2ccc(C(F)(F)F)c(F)c2)nc1Oc1ccnc(C(F)(F)F)c1 [Compound 185] | – | – | – | – | – | – | – | – | – | – | – | – | – | 100 | 70 | – |
| CCOc1nn(-c2ccc(Br)cc2)nc1Cc1ccnc(C(F)(F)F)c1 [Compound 189] | – | – | – | – | – | – | – | – | – | – | – | – | 100 | – | – | – |
